In ChEMBL document CHEMBL1145594, “Carbonic anhydrase inhibitors: design of spin-labeled sulfonamides incorporating TEMPO moieties as probes for cytosolic or transmembrane isozymes” (Bioorg Med Chem Lett, 2008) one finds Ki data, which are given here for 9 molecules.

This experiment addresses Carbonic anhydrase 9 (Homo sapiens, UniProt Q16790).
Description: Inhibition of human cloned carbonic anhydrase 9 by CO2 hydration stopped-flow assay
In the case of `CC1(C)CC(NC(=S)Nc2cccc(S(N)(=O)=O)c2)CC(C)(C)N1[O]`, the affinity, expressed as Ki, was 132 nM. In other words, the sub-micromolar range.
`CC1(C)CC(NC(=S)Nc2ccc(S(=O)(=O)NCCc3ccc(S(N)(=O)=O)cc3)cc2)CC(C)(C)N1[O]` yielded an inhibition constant Ki of 41 nM.
Next, `CC1(C)CC(NC(=S)Nc2ccc(S(=O)(=O)Nc3cccc(S(N)(=O)=O)c3)cc2)CC(C)(C)N1[O]`: 220 nM.
As for `CC1(C)CC(NC(=S)NCCc2ccc(S(N)(=O)=O)cc2)CC(C)(C)N1[O]`, the figure is 39 nM.
Consider `CC1(C)CC(NC(=S)Nc2ccc(S(=O)(=O)NCc3ccc(S(N)(=O)=O)cc3)cc2)CC(C)(C)N1[O]`, for which the inhibitory constant (Ki) is 7 nM.
Turning to `CC1(C)CC(NC(=S)NCc2ccc(S(N)(=O)=O)cc2)CC(C)(C)N1[O]`, the inhibition constant (Ki) was 35 nM.
As for `CC1(C)CC(NC(=S)Nc2ccc(S(N)(=O)=O)cc2F)CC(C)(C)N1[O]`, the figure is 22 nM; as for `CC1(C)CC(NC(=S)Nc2ccc(S(N)(=O)=O)cc2Cl)CC(C)(C)N1[O]`, 14 nM; as for `CC1(C)CC(NC(=S)Nc2ccc(S(=O)(=O)Nc3ccc(S(N)(=O)=O)cc3)cc2)CC(C)(C)N1[O]`, 30 nM.

For orientation: Ki means the equilibrium dissociation constant of an inhibitor or competing ligand from its target. A low value points to higher affinity.
